{"source": "paper PMC9344678", "about": "“BTApep-TAT peptide inhibits ADP-ribosylation of BORIS to induce DNA damage in cancer” (Molecular Cancer, 2022)", "key": {"BORIS": {"system": "BORIS", "assay": "ADP ribosylation of BORIS under olaparib", "assay_type": "cell-based", "details": "PARP inhibitor incubation", "protocol": "HeLa or H1299 cells were lysed in immunoprecipitation (IP) buffer (50 mM Tris–HCl pH 7.4, 150 mM NaCl, 1% NP-40, 1 mM EDTA, 5% glycerol) containing protease inhibitor cocktails. The cell lysates were incubated with mouse anti-Myc (CST, 2276) or rabbit anti-poly/mono-ADP Ribose (E6F6A) monoclonal antibody (CST, 83732) on a rotary shaker at 4 °C overnight. Mouse or rabbit IgG (Santa Cruz, sc-2025 or sc2027) was used as a negative control for detecting the pull-down specificity. Protein G beads (Santa Cruz, sc-2001) or protein A beads (Santa Cruz, sc-2002) were added and incubated at room temperature for 2 h. The agarose beads were collected by centrifugation, washed five times with IP buffer according to the manufacturer’s instructions, and eluted in SDS sample buffer for the subsequent Western blotting assay."}, "PARP2": {"system": "PARP2", "details": "ref [33], [49]; cited from earlier work"}, "BORIS-N1-258": {"target": "T1, BORIS-N1-258 (Homo sapiens, UniProt Q8NI51)", "T1 construct": "The N terminal section of BORIS corresponding to AA 1–258 (BORIS-N1-258); 6xHis (C); made in house", "T1 sequence (Q8NI51 1-258)": "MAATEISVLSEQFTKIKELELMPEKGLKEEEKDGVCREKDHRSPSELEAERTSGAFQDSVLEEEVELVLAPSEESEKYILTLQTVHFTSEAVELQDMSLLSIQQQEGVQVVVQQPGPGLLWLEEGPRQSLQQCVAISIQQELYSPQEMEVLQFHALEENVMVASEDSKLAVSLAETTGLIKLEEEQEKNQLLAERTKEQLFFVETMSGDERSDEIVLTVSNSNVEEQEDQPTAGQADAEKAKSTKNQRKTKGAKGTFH", "assay": "BLI, BORIS-N1-258 immobilized on SSA sensor, free peptide in solution", "assay_type": "binding", "details": "free peptide in PBS with 0.02% Tween 20", "description": "Twelve tandemly connected His was synthesized and conjugated with biotin or FITC as a negative control peptide by China Peptides Co., Ltd. The peptides were stored in powder at -80 °C. The peptides were dissolved in phosphate-buffered saline and filtered through a 0.22 µm filter to remove bacteria before use. The interaction between peptides and BORIS-N1-258 was measured by Bio-layer interferometry (BLI) in the ForteBio OctetRed system. The measurement was carried out in 5 steps: initial baseline duration, loading duration, baseline duration, association duration, and dissociation duration. In loading duration, 10 nM biotinylated peptides or 1 µM BORIS-N1-258 protein were immobilized on streptavidin-coated biosensors (ForteBio). The immobilization typically reached a response level of 4 nm. Association and dissociation curves were obtained through the addition of a dilution series of BORIS-N1-258 or peptides in PBS with 0.02% Tween 20 for the indicated period of time using Octet acquisition software. The binding data were fitted using Octet analysis software.\nThe BORIS-N1-258 protein was conjugated with biotin and loaded onto an SSA sensor. The synthesized peptides were dissolved in PBS with 0.02% Tween 20."}, "HEK293 cells": {"system": "HEK293 cells", "assay": "Proliferation of HEK293 cells", "assay_type": "cell-based", "details": "25 µM (Fig. 2D); normal cells not expressing BORIS", "description": "(§1) H1299 cells (RRID: CVCL_0060) were cultured in RPMI 1640 medium supplemented with 10% FBS. HEK293 (RRID:CVCL_0045) and HeLa (RRID:CVCL_0030) cells were cultured in Dulbecco's modified Eagle’s medium (DMEM) supplemented with 10% FBS and placed in 37 ℃ and 5% CO2 incubators. Cells were seeded in 6-well plates at 1 × 10^5 cells/well or in 96-well plates at 2000 cells/well for experiments. Cell viability was measured by MTT assay.\n(§2) Cells were plated and treated with BORIS-targeted peptide (BTApep-TAT) or negative control peptide (His-TAT) at concentrations of 10 µM, 25 µM, 50 µM and 100 µM for 3 days. Cell viability was measured by MTT assay. Cell apoptosis was measured by TUNEL assay (cat. # 40306ES20, Yeasen Biotech Co., Ltd) and Caspase-Glo 3/7 assay (G8090, Promega Corporation, an affiliate of Promega (Beijing) Biotech Co., Ltd.)."}, "H1299 cells": {"system": "H1299 cells", "assay": "Proliferation of H1299 cells (MTT, cell counting)", "assay_type": "cell-based", "details": "25 µM (Fig. 2D)", "description": "as §1, §2"}, "BORIS-N198-228 peptide": {"system": "BORIS-N198-228 peptide", "assay": "PARP1-catalyzed in vitro PARylation assay", "assay_type": "biochemical", "details": "recombinant PARP1, ssDNA, 37 °C 30 min, dot blot anti-ADPr", "description": "Peptides (1–4 μg) incubated with different samples were added to 50 μL PARP1 reaction buffer (50 mM Tris–HCl at pH 7.4, 2 mM MgCl2, 200 μM NAD^+), which contained 0.2 μg of recombinant PARP1 (Trevigen, 4668–100-01) and 2.5 μg of ssDNA (Sigma, D8899), and reaction was carried out at 37 °C for 30 min. Low molecular weight peptide and PARP1 protein in the reactions were separated by a 30 kDa cutoff centrifugal filter (Millipore, UFC803096). Then, SDS loading buffer was added to separate peptides or proteins and analyzed by dot blotting using an anti- ADP ribosylation (ADPr) antibody.\nTo further confirm ADP ribosylation at residues 198–228, the synthesized BORIS-N198-228 peptide was subjected to a PARP1-catalyzed in vitro PARylation assay. Single-strand DNA (ssDNA) was added to activate PARP1. The BORIS-N198-228 peptide was separated by centrifugal filtration, and its PARylation levels were examined by dot blotting using an anti-ADPr antibody. […] To determine the modification between residues 198–228, the BORIS-N198-228 peptide was pre-incubated with BTApep-TAT or His-TAT before processing for PARP1-catelyzed in vitro PARylation. […] Taken together, we provided evidence that ADP ribosylation of BORIS was responsible for the association with Ku70 and DNA repair. […]"}, "[1]": {"target": "T2, BORIS N-terminal region AA 1-258 (BORIS-N_(1-258)), His-tagged, from bacteria (human, UniProt Q8NI51 1-258, biotin (conjugated for loading onto the SSA sensor; position not stated; not said of the protein used free in solution or coated on plates))", "T2 construct": "Cloned in the backbone of plasmid pFN6K; also called BORIS antigen; not shown: His6, C-terminal, kept", "T2 sequence (looked up)": "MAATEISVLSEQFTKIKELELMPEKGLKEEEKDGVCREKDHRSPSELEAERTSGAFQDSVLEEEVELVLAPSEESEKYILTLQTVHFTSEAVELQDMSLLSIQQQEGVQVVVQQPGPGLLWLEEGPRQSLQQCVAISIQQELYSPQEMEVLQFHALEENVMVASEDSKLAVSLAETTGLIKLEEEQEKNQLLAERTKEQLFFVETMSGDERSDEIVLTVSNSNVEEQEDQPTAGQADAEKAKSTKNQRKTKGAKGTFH", "assay": "BLI; ForteBio OctetRed; biotin-labeled peptide 9 loaded onto an SA sensor (10 nM in loading), dilution series of BORIS-N_(1-258) in PBS with 0.02% Tween 20", "details": "both partners purified"}, "[2]": {"target": "T3, BORIS-N_(1-258) expressed and purified from HEK293 cells (human, UniProt Q8NI51 1-258)", "T3 construct": "source: HEK293 cells, expressed and purified", "T3 sequence (looked up)": "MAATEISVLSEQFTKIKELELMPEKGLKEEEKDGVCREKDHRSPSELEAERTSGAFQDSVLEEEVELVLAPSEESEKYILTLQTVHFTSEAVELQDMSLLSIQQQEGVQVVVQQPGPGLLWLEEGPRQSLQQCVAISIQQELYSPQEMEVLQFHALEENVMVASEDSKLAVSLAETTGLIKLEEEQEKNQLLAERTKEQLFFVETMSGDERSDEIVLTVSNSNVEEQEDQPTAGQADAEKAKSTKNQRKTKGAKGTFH", "assay": "BLI; ForteBio OctetRed; biotin-labeled peptide 9 loaded onto an SA sensor (10 nM in loading), dilution series of BORIS-N_(1-258) in PBS with 0.02% Tween 20", "details": "both partners purified"}, "[3]": {"target": "T2, BORIS N-terminal region AA 1-258 …", "assay": "BLI; ForteBio OctetRed; biotin-conjugated BORIS-N_(1-258) loaded onto an SSA sensor (1 µM in loading), free peptide in solution in PBS with 0.02% Tween 20", "details": "both partners purified"}, "[4]": {"target": "T2, BORIS N-terminal region AA 1-258 …", "assay": "ELISA; plates coated overnight at 4 °C with purified His-tagged BORIS-N_(1-258) (carbonate buffer, pH 9.6); purified phage clones in serial dilutions, 2 h at RT; detection by HRP-conjugated anti-M13 antibody", "details": "both partners purified"}}, "note": "Where no end group is shown, it is not given here.", "data": [{"molecule": "O=C(c1cc(Cc2n[nH]c(=O)c3ccccc23)ccc1F)N1CCN(C(=O)C2CC2)CC1", "note": "[Olaparib, olaparib]", "values": [{"measurement": "effect on ADP ribosylation of BORIS", "setting": "BORIS", "value": "did not attenuate ADP ribosylation of BORIS"}, {"measurement": "inhibition of PARP2", "setting": "PARP2", "value": "inhibits"}]}, {"molecule": "RFDHWVWQSQPW [Scrambled peptide 9]", "values": [{"measurement": "affinity in BLI", "setting": "BORIS-N1-258; result in words, BORIS-N1-258 on SSA sensor", "value": "did not have any measurable affinity"}]}, {"molecule": "BTApep: BORIS-targeted peptide lacking the TAT penetrating peptide (VHWDFRQWWQPS)", "values": [{"measurement": "suppression of proliferation of HEK293 cells", "setting": "HEK293 cells", "value": "did not inhibit cell proliferation"}, {"measurement": "suppression of proliferation of H1299 cells", "setting": "H1299 cells", "value": "did not inhibit cell proliferation"}]}, {"molecule": "DWSSWVYRDPQT [Peptide 2]", "values": [{"measurement": "Kd", "setting": "BORIS-N1-258; bacterial BORIS-N1-258 on SSA sensor, read-out: binding affinity (Kd)", "value": 315, "unit": "µM"}]}, {"molecule": "BORIS-N198-228 peptide: synthesized peptide of BORIS residues 198–228 (EQLFFVETMSGDERSDEIVLTVSNSNVEEQE; UniProt Q8NI51 198-228, looked up, fragment)", "values": [{"measurement": "PARylation of the peptide itself", "setting": "BORIS-N198-228 peptide", "value": "accumulated in proportion to its abundance"}]}, {"molecule": "VHWDFRQWWQPS (also: biotin (position not given here), 12-mer selected from the Ph.D.-12 phage display peptide library; also called BTApep-biotin; biotinylated peptide 9; source: synthetic peptide (China Peptides Co., Ltd.))", "note": "[Peptide 9 labeled with biotin]", "values": [{"measurement": "Kd", "setting": "[1]", "value": 0.0053, "unit": "µM"}, {"measurement": "Kd", "setting": "[2]", "value": 0.00637, "unit": "µM"}]}, {"molecule": "DWSSWVYRDPQT (12-mer selected from the Ph.D.-12 phage display peptide library; source: synthetic peptide (China Peptides Co., Ltd.))", "note": "[Peptide 2]", "values": [{"measurement": "Kd", "setting": "[3]", "value": 314, "unit": "µM"}]}, {"molecule": "VHWDFRQWWQPS (12-mer selected from the Ph.D.-12 phage display peptide library; The methods say that the peptides were synthesized and conjugated with biotin or FITC; also called peptide from phage clone 9; BTApep; source: synthetic peptide (China Peptides Co., Ltd.))", "note": "[Peptide 9 (synthesized, free in solution)]", "values": [{"measurement": "Kd", "setting": "[3]", "value": 86.4, "unit": "µM"}]}, {"molecule": "VHWDFRQWWQPSGGGS (4 amino acid spacer that links the 12-mer to the N-terminus of a phage coat protein; Whole phage particle; source: purified phage clone from the Ph.D.-12 Phage Display Peptide Library (New England Biolabs); not shown: phage coat protein (Ph.D.-12 library), C-terminal, kept)", "note": "[Phage clone 9 (peptide 9 displayed on phage)]", "values": [{"measurement": "binding result", "setting": "[4]", "value": "binds"}]}]}
